Measurements reported in ChEMBL document CHEMBL1140860, “Synthesis and evaluation of dihydroartemisinin and dihydroartemisitene acetal dimers showing anticancer and antiprotozoal activity” (Bioorg Med Chem, 2009).

Columns and labels:
CCRF-CEM = experiment: Growth inhibition of human CCRF-CEM cells after 48 hrs by sulforhodamine B assay; type: functional
K562 = experiment: Growth inhibition of human K562 cells after 48 hrs by sulforhodamine B assay; type: functional; conditions: K562, 48 h
SR = experiment: Growth inhibition of human SR cells after 48 hrs by sulforhodamine B assay; type: functional
A549 = experiment: Growth inhibition of human A549 cells after 48 hrs by sulforhodamine B assay; type: functional; conditions: A549, 48 h
HCC 2998 = experiment: Growth inhibition of human HCC2998 cells after 48 hrs by sulforhodamine B assay; type: functional; conditions: HCC 2998, 48 h
HCT-116 = experiment: Growth inhibition of human HCT116 cells after 48 hrs by sulforhodamine B assay; type: functional; conditions: HCT-116, 48 h
HT-29 = experiment: Growth inhibition of human HT-29 cells after 48 hrs by sulforhodamine B assay; type: functional; conditions: HT-29, 48 h
KM12 = experiment: Growth inhibition of human KM12 cells after 48 hrs by sulforhodamine B assay; type: functional; conditions: KM12, 48 h
SF-268 = experiment: Growth inhibition of human SF268 cells after 48 hrs by sulforhodamine B assay; type: functional; conditions: SF-268, 48 h
SF-295 = experiment: Growth inhibition of human SF295 cells after 48 hrs by sulforhodamine B assay; type: functional; conditions: SF-295, 48 h
SF-539 = experiment: Growth inhibition of human SF539 cells after 48 hrs by sulforhodamine B assay; type: functional; conditions: SF-539, 48 h
SNB-75 = experiment: Growth inhibition of human SNB75 cells after 48 hrs by sulforhodamine B assay; type: functional; conditions: SNB-75, 48 h
M14 = experiment: Growth inhibition of human M14 cells after 48 hrs by sulforhodamine B assay; type: functional; conditions: M14, 48 h
Malme-3M = experiment: Growth inhibition of human MALME-3M cells after 48 hrs by sulforhodamine B assay; type: functional
SK-MEL-2 = experiment: Growth inhibition of human SK-MEL-2 cells after 48 hrs by sulforhodamine B assay; type: functional; conditions: SK-MEL-2, 48 h
UACC-257 = experiment: Growth inhibition of human UACC257 cells after 48 hrs by sulforhodamine B assay; type: functional; conditions: UACC-257, 48 h
UACC-62 = experiment: Growth inhibition of human UACC62 cells after 48 hrs by sulforhodamine B assay; type: functional; conditions: UACC-62, 48 h
IGROV-1 = experiment: Growth inhibition of human IGROV1 cells after 48 hrs by sulforhodamine B assay; type: functional; conditions: IGROV-1, 48 h
OVCAR-3 = experiment: Growth inhibition of human OVCAR-3 cells after 48 hrs by sulforhodamine B assay; type: functional; conditions: OVCAR-3, 48 h
OVCAR-4 = experiment: Growth inhibition of human OVCAR4 cells after 48 hrs by sulforhodamine B assay; type: functional; conditions: OVCAR-4, 48 h
OVCAR-5 = experiment: Growth inhibition of human OVCAR5 cells after 48 hrs by sulforhodamine B assay; type: functional; conditions: OVCAR-5, 48 h
OVCAR-8 = experiment: Growth inhibition of human OVCAR8 cells after 48 hrs by sulforhodamine B assay; type: functional; conditions: OVCAR-8, 48 h
SK-OV-3 = experiment: Growth inhibition of human SKOV3 cells after 48 hrs by sulforhodamine B assay; type: functional; conditions: SK-OV-3, 48 h
786-0 = experiment: Growth inhibition of human 786-0 cells after 48 hrs by sulforhodamine B assay; type: functional; conditions: 786-0, 48 h
A498 = experiment: Growth inhibition of human A498 cells after 48 hrs by sulforhodamine B assay; type: functional; conditions: A498, 48 h
ACHN = experiment: Growth inhibition of human ACHN cells after 48 hrs by sulforhodamine B assay; type: functional
CAKI-1 = experiment: Growth inhibition of human Caki1 cells after 48 hrs by sulforhodamine B assay; type: functional; conditions: CAKI-1, 48 h
RXF 393 = experiment: Growth inhibition of human RXF393 cells after 48 hrs by sulforhodamine B assay; type: functional; conditions: RXF 393, 48 h
TK-10 = experiment: Growth inhibition of human TK10 cells after 48 hrs by sulforhodamine B assay; type: functional; conditions: TK-10, 48 h
UO-31 = experiment: Growth inhibition of human UO31 cells after 48 hrs by sulforhodamine B assay; type: functional; conditions: UO-31, 48 h
PC-3 = experiment: Growth inhibition of human PC3 cells after 48 hrs by sulforhodamine B assay; type: functional; conditions: PC-3, 48 h
DU-145 = experiment: Growth inhibition of human DU145 cells after 48 hrs by sulforhodamine B assay; type: functional; conditions: DU-145, 48 h
MCF7 = experiment: Growth inhibition of human MCF7 cells after 48 hrs by sulforhodamine B assay; type: functional; conditions: MCF7, 48 h
[1] = Growth inhibition of human Hs 578T cells after 48 hrs by sulforhodamine B assay; type: functional
MDA-MB-435 = experiment: Growth inhibition of human MDA-MB-435 cells after 48 hrs by sulforhodamine B assay; type: functional; conditions: MDA-MB-435, 48 h
MDA-N = experiment: Growth inhibition of human MDA-N cells after 48 hrs by sulforhodamine B assay; type: functional
BT-549 = experiment: Growth inhibition of human BT549 cells after 48 hrs by sulforhodamine B assay; type: functional; conditions: BT-549, 48 h
T47D = experiment: Growth inhibition of human T47D cells after 48 hrs by sulforhodamine B assay; type: functional
Plasmodium falciparum [2] = experiment: Antimalarial activity after 72 hrs against chloroquine-sensitive Plasmodium falciparum D6 infected in erythrocytes by LDH assay; type: functional, organism-based; conditions: D6, 72 h
[3] = Selectivity index, ratio of TC50 for african green monkey (Cercopithecus aethiops) Vero cells to IC50 for chloroquine-sensitive Plasmodium falciparum D6; type: toxicity, cell-based
Plasmodium falciparum [4] = experiment: Antimalarial activity after 72 hrs against chloroquine-resistant Plasmodium falciparum W2 infected erythrocytes by LDH assay; type: functional, organism-based; conditions: W2, 72 h
[5] = Cytotoxicity against african green monkey Vero cells after 48 hrs by neutral red assay; type: cell-based; conditions: chlorocebus sabaeus, read-out: TC50
HOP-62 = experiment: Growth inhibition of human HOP62 cells after 48 hrs by sulforhodamine B assay; type: functional; conditions: HOP-62, 48 h
HOP-92 = experiment: Growth inhibition of human HOP92 cells after 48 hrs by sulforhodamine B assay; type: functional; conditions: HOP-92, 48 h
NCI-H226 = experiment: Growth inhibition of human NCI-H226 cells after 48 hrs by sulforhodamine B assay; type: functional; conditions: NCI-H226, 48 h
NCI-H23 = experiment: Growth inhibition of human NCI-H23 cells after 48 hrs by sulforhodamine B assay; type: functional; conditions: NCI-H23, 48 h
NCI-H322M = experiment: Growth inhibition of human NCI-H322M cells after 48 hrs by sulforhodamine B assay; type: functional
NCI-H460 = experiment: Growth inhibition of human NCI-H460 cells after 48 hrs by sulforhodamine B assay; type: functional; conditions: NCI-H460, 48 h
NCI-H522 = experiment: Growth inhibition of human NCI-H522 cells after 48 hrs by sulforhodamine B assay; type: functional; conditions: NCI-H522, 48 h
COLO 205 = experiment: Growth inhibition of human COLO205 cells after 48 hrs by sulforhodamine B assay; type: functional; conditions: COLO 205, 48 h

C[C@H]1[C@H](OCCO[C@H]2O[C@@H]3O[C@@]4(C)CC[C@H]5[C@H](C)CC[C@@H]([C@H]2C)[C@@]35OO4)O[C@@H]2O[C@@]3(C)CC[C@H]4[C@H](C)CC[C@@H]1[C@@]24OO3
GI50 (CCRF-CEM): 0.025 µM | GI50 (K562): 0.02 µM | GI50 (SR): 0.025 µM | GI50 (A549): 0.059 µM | GI50 (HCC 2998): 0.067 µM | GI50 (HCT-116): 0.03 µM | GI50 (HT-29): 0.038 µM | GI50 (KM12): 0.033 µM | GI50 (SF-268): 7.54 µM | GI50 (SF-295): 1.1 µM | GI50 (SF-539): 0.063 µM | GI50 (SNB-75): 0.366 µM | GI50 (M14): 7.6 µM | GI50 (Malme-3M): 0.235 µM | GI50 (SK-MEL-2): 0.212 µM | GI50 (UACC-257): 0.054 µM | GI50 (UACC-62): 0.072 µM | GI50 (IGROV-1): 8.28 µM | GI50 (OVCAR-3): 1.28 µM | GI50 (OVCAR-4): 0.041 µM | GI50 (OVCAR-5): 0.059 µM | GI50 (OVCAR-8): 0.034 µM | GI50 (SK-OV-3): 17.9 µM | GI50 (786-0): 0.324 µM | GI50 (A498): 8.11 µM | GI50 (ACHN): 0.224 µM | GI50 (CAKI-1): 0.09 µM | GI50 (RXF 393): 0.054 µM | GI50 (TK-10): 0.064 µM | GI50 (UO-31): 0.035 µM | GI50 (PC-3): 0.022 µM | GI50 (DU-145): 8.19 µM | GI50 (MCF7): 0.028 µM | GI50 [1]: 7.65 µM | GI50 (MDA-MB-435): 0.045 µM | GI50 (MDA-N): 0.061 µM | GI50 (BT-549): 0.074 µM | GI50 (T47D): 0.016 µM | IC50 (Plasmodium falciparum [2]): 31.9 µM | selectivity ratio [3]: > 25 | IC50 (Plasmodium falciparum [4]): 21.9 µM | CC50 at 48 h [5]: > 800 µM | GI50 (HOP-62): 11.6 µM | GI50 (HOP-92): 0.052 µM | GI50 (NCI-H226): 9.54 µM | GI50 (NCI-H23): 0.036 µM | GI50 (NCI-H322M): 7.9 µM | GI50 (NCI-H460): 0.046 µM | GI50 (NCI-H522): 0.68 µM | GI50 (COLO 205): 0.015 µM

C[C@H]1[C@@H](OCC(=O)CO[C@H]2O[C@@H]3O[C@@]4(C)CC[C@H]5[C@H](C)CC[C@@H]([C@H]2C)[C@@]35OO4)O[C@@H]2O[C@@]3(C)CC[C@H]4[C@H](C)CC[C@@H]1[C@@]24OO3
GI50 (CCRF-CEM): < 0.01 µM | GI50 (K562): < 0.01 µM | GI50 (SR): < 0.01 µM | GI50 (A549): < 0.01 µM | GI50 (HCC 2998): < 0.01 µM | GI50 (HCT-116): < 0.01 µM | GI50 (HT-29): < 0.01 µM | GI50 (KM12): < 0.01 µM | GI50 (SF-268): 2.03 µM | GI50 (SF-295): 7.24 µM | GI50 (SF-539): 10.1 µM | GI50 (SNB-75): 0.015 µM | GI50 (M14): < 0.01 µM | GI50 (Malme-3M): < 0.01 µM | GI50 (SK-MEL-2): 0.031 µM | GI50 (UACC-257): < 0.01 µM | GI50 (UACC-62): < 0.01 µM | GI50 (IGROV-1): 1.74 µM | GI50 (OVCAR-3): < 0.01 µM | GI50 (OVCAR-4): 0.069 µM | GI50 (OVCAR-5): < 0.01 µM | GI50 (OVCAR-8): < 0.01 µM | GI50 (SK-OV-3): 15.8 µM | GI50 (786-0): 0.093 µM | GI50 (A498): 15.4 µM | GI50 (ACHN): 0.026 µM | GI50 (CAKI-1): 0.077 µM | GI50 (RXF 393): 12.6 µM | GI50 (TK-10): 0.278 µM | GI50 (UO-31): < 0.01 µM | GI50 (PC-3): < 0.01 µM | GI50 (DU-145): 11.2 µM | GI50 (MCF7): < 0.01 µM | GI50 [1]: 16.2 µM | GI50 (MDA-MB-435): 0.017 µM | GI50 (MDA-N): 0.026 µM | GI50 (BT-549): 0.29 µM | GI50 (T47D): < 0.01 µM | IC50 (Plasmodium falciparum [2]): 1.1 µM | selectivity ratio [3]: > 6800 | IC50 (Plasmodium falciparum [4]): 0.3 µM | CC50 at 48 h [5]: > 7640 µM | GI50 (HOP-62): 11.9 µM | GI50 (HOP-92): 0.021 µM | GI50 (NCI-H226): 0.331 µM | GI50 (NCI-H23): < 0.01 µM | GI50 (NCI-H322M): 8.42 µM | GI50 (NCI-H460): < 0.01 µM | GI50 (NCI-H522): 0.018 µM | GI50 (COLO 205): < 0.01 µM
